In the NIST ThermoML archive (doi:10.1016/j.jct.2007.11.001):
± gives the expanded uncertainty stated by the source.

Assay: molar heat capacity at constant pressure
Details: 101.33 kPa, Crystal 2, Small (less than 1 g) adiabatic calorimetry

O=P([O-])([O-])[O-].[Cs+].[Mg+2] [caesium-magnesium monophosphate]
molar heat capacity at constant pressure (7.22 K): 0.956 ± 0.03 J/K/mol
molar heat capacity at constant pressure (7.3 K): 0.981 ± 0.03 J/K/mol
molar heat capacity at constant pressure (7.96 K): 1.22 ± 0.04 J/K/mol
molar heat capacity at constant pressure (8 K): 1.24 ± 0.04 J/K/mol
molar heat capacity at constant pressure (8.7 K): 1.59 ± 0.05 J/K/mol
molar heat capacity at constant pressure (9.4 K): 1.98 ± 0.06 J/K/mol
molar heat capacity at constant pressure (10.09 K): 2.4 ± 0.05 J/K/mol
molar heat capacity at constant pressure (10.42 K): 2.67 ± 0.05 J/K/mol
molar heat capacity at constant pressure (11.01 K): 3.12 ± 0.056 J/K/mol
molar heat capacity at constant pressure (11.69 K): 3.64 ± 0.061 J/K/mol
molar heat capacity at constant pressure (12.4 K): 4.2 ± 0.067 J/K/mol
molar heat capacity at constant pressure (13.07 K): 4.7 ± 0.071 J/K/mol
molar heat capacity at constant pressure (13.9 K): 5.392 ± 0.077 J/K/mol
molar heat capacity at constant pressure (14.63 K): 6.03 ± 0.083 J/K/mol
molar heat capacity at constant pressure (15.35 K): 6.706 ± 0.09 J/K/mol
molar heat capacity at constant pressure (16.06 K): 7.41 ± 0.096 J/K/mol
molar heat capacity at constant pressure (16.84 K): 8.22 ± 0.1 J/K/mol
molar heat capacity at constant pressure (17.45 K): 8.872 ± 0.11 J/K/mol
molar heat capacity at constant pressure (18.81 K): 10.39 ± 0.12 J/K/mol
molar heat capacity at constant pressure (19.49 K): 11.15 ± 0.12 J/K/mol
molar heat capacity at constant pressure (20.16 K): 11.94 ± 0.13 J/K/mol
molar heat capacity at constant pressure (21.16 K): 13.14 ± 0.14 J/K/mol
molar heat capacity at constant pressure (22.91 K): 15.3 ± 0.16 J/K/mol
molar heat capacity at constant pressure (25.31 K): 18.18 ± 0.17 J/K/mol
molar heat capacity at constant pressure (27.75 K): 20.87 ± 0.18 J/K/mol
molar heat capacity at constant pressure (30.21 K): 23.48 ± 0.19 J/K/mol
molar heat capacity at constant pressure (32.69 K): 25.92 ± 0.21 J/K/mol
molar heat capacity at constant pressure (35.16 K): 28.27 ± 0.22 J/K/mol
molar heat capacity at constant pressure (37.64 K): 30.51 ± 0.23 J/K/mol
molar heat capacity at constant pressure (40.12 K): 32.64 ± 0.21 J/K/mol
molar heat capacity at constant pressure (42.6 K): 34.69 ± 0.22 J/K/mol
molar heat capacity at constant pressure (45.08 K): 36.64 ± 0.22 J/K/mol
molar heat capacity at constant pressure (47.57 K): 38.55 ± 0.22 J/K/mol
molar heat capacity at constant pressure (52.52 K): 41.99 ± 0.24 J/K/mol
molar heat capacity at constant pressure (54.99 K): 43.63 ± 0.25 J/K/mol
molar heat capacity at constant pressure (57.47 K): 45.23 ± 0.25 J/K/mol
molar heat capacity at constant pressure (59.95 K): 46.77 ± 0.26 J/K/mol
molar heat capacity at constant pressure (61.64 K): 47.78 ± 0.27 J/K/mol
molar heat capacity at constant pressure (63.99 K): 49.13 ± 0.27 J/K/mol
molar heat capacity at constant pressure (67.48 K): 51.06 ± 0.27 J/K/mol
molar heat capacity at constant pressure (71.15 K): 53 ± 0.28 J/K/mol
molar heat capacity at constant pressure (74.82 K): 54.85 ± 0.29 J/K/mol
molar heat capacity at constant pressure (78.48 K): 56.63 ± 0.3 J/K/mol
molar heat capacity at constant pressure (82.15 K): 58.35 ± 0.31 J/K/mol
molar heat capacity at constant pressure (82.7 K): 58.61 ± 0.31 J/K/mol
molar heat capacity at constant pressure (85.82 K): 60.04 ± 0.31 J/K/mol
molar heat capacity at constant pressure (85.9 K): 60.06 ± 0.31 J/K/mol
molar heat capacity at constant pressure (88.99 K): 61.45 ± 0.32 J/K/mol
molar heat capacity at constant pressure (89.49 K): 61.67 ± 0.32 J/K/mol
molar heat capacity at constant pressure (91.95 K): 62.76 ± 0.35 J/K/mol
molar heat capacity at constant pressure (94.91 K): 64.05 ± 0.36 J/K/mol
molar heat capacity at constant pressure (97.87 K): 65.34 ± 0.36 J/K/mol
molar heat capacity at constant pressure (100.82 K): 66.59 ± 0.36 J/K/mol
molar heat capacity at constant pressure (103.77 K): 67.82 ± 0.37 J/K/mol
molar heat capacity at constant pressure (106.72 K): 69.04 ± 0.37 J/K/mol
molar heat capacity at constant pressure (109.68 K): 70.27 ± 0.37 J/K/mol
molar heat capacity at constant pressure (112.63 K): 71.51 ± 0.37 J/K/mol
molar heat capacity at constant pressure (115.8 K): 72.79 ± 0.38 J/K/mol
molar heat capacity at constant pressure (118.91 K): 74.06 ± 0.38 J/K/mol
molar heat capacity at constant pressure (121.88 K): 75.27 ± 0.39 J/K/mol
molar heat capacity at constant pressure (124.84 K): 76.48 ± 0.39 J/K/mol
molar heat capacity at constant pressure (127.8 K): 77.7 ± 0.4 J/K/mol
molar heat capacity at constant pressure (130.76 K): 78.9 ± 0.4 J/K/mol
molar heat capacity at constant pressure (133.72 K): 80.09 ± 0.4 J/K/mol
molar heat capacity at constant pressure (136.69 K): 81.3 ± 0.42 J/K/mol
molar heat capacity at constant pressure (139.65 K): 82.5 ± 0.42 J/K/mol
molar heat capacity at constant pressure (142.62 K): 83.64 ± 0.42 J/K/mol
molar heat capacity at constant pressure (145.59 K): 84.81 ± 0.42 J/K/mol
molar heat capacity at constant pressure (148.56 K): 85.97 ± 0.42 J/K/mol
molar heat capacity at constant pressure (151.53 K): 87.14 ± 0.42 J/K/mol
molar heat capacity at constant pressure (154.5 K): 88.22 ± 0.42 J/K/mol
molar heat capacity at constant pressure (157.6 K): 89.38 ± 0.42 J/K/mol
molar heat capacity at constant pressure (160.43 K): 90.46 ± 0.42 J/K/mol
molar heat capacity at constant pressure (163.6 K): 91.63 ± 0.42 J/K/mol
molar heat capacity at constant pressure (166.37 K): 92.62 ± 0.42 J/K/mol
